In brackets after ≈: the same amount, converted by molar mass. Like-named read-outs stand apart in the source and are kept apart here. One block for each molecule: values may come before it.
Columns and labels:
P. nigrescens ATCC33563 = test: MIC vs. oral germs, broth dilution method; format: cell-based, Prevotella nigrescens; settings: for MIC: Prevotella nigrescens
Excerpt: (§1) b) Determination of MIC vs. different oral germs in the broth dilution method • Medium: Thioglycolate Bouillon with Hemin and Menadion Columbia Bouillon with Hemin and Menadion für P. gingivalis und P. nigrescens • diluent: the corresponding amount of the substances was pippeted directly • Examples of Test organisms: • Actinobacillus actinomycetemcomitans ATCC43718 • Streptococcus gordonii ATCC10558 • Streptococcus mutans ATCC33402 • Actinomyces viscosus ATCC43146 • Fusobacterium nucleatum subsp. polymorphum ATCC1095 • Porphyromonas gingivalis ATCC3277 • Prevotella nigrescens ATCC33563 • Incubation: 7-10 days at 37° C. under anaerobic conditions, resp. 24 h aerobically with 10% CO2 for Streptococci und A. actinomycetemcomitans • Test solution: Stock solutions in ethanol with 1500 ppm (w/w) are used from all test substances
(§2) Bacteria are taken from blood agar plates with cotton swabs and a suitable O.D. is adjusted in the corresponding medium (McFarland 0.5). This solution is used for F. nucleatum and P. nigrescens in undiluted state, for the other strains a dilution of 1:20 is used. To each 2 ml of active ingredient containing solution 0.1 ml of the bacteria culture is added and incubated as described above.

P. gingivalis ATCC3277 = test: MIC vs. oral germs, broth dilution method; format: cell-based, Porphyromonas gingivalis; settings: for MIC: Porphyromonas gingivalis
Excerpt: as §1, §2

[1] = test system: A. actinomycetemcomitans ATCC43718; test: MIC vs. oral germs, broth dilution method; format: cell-based, Actinobacillus actinomycetemcomitans; settings: for MIC: Aggregatibacter actinomycetemcomitans, read-out: MHK (MIC) A. actinomycetemcomitans ATCC43718
Excerpt: as §1, §2

[2] = test system: Propionibacterium acnes ATCC 6919; test: MIC, Agar incorporation test; format: cell-based
Description: (§3) 0.3 ml of each dilution step is mixed with 15 ml of nutrient medium while the latter is still liquid. After the nutrient medium has solidified, 10 μl of each of the following organism dilutions of the test strains in 0.85% NaCl solution are spotted onto the agar medium.
(§4) The plates are incubated during 24 hours at 37° C. and then the highest dilution (lowest concentration) of the test substance at which growth is just no longer discernible (corresponds to the MIC) is determined.

[3] = test system: Staphylococcus aureus ATCC 6538; test: MIC, Agar incorporation test; format: cell-based
Description: as §3, §4

[4] = test system: Corynebacterium xerosis ATCC 373; test: MIC, Agar incorporation test; format: cell-based
Description: as §3, §4

[5] = test system: Pseudomonas aeruginosa ATCC 15442; test: MIC, Agar incorporation test; format: cell-based
Description: as §3, §4

[6] = test system: Staphylococcus epidermidis ATCC 12228; test: MIC, Agar incorporation test; format: cell-based
Description: as §3, §4

[7] = test system: Escherischia coli ATCC 10536; test: MIC, Agar incorporation test; format: cell-based; settings: 24 hours at 37° C.
Description: as §3, §4

[8] = test system: F. nucleatum subsp. polymorphum ATCC10953; test: MIC vs. oral germs, broth dilution method; format: cell-based, Fusobacterium nucleatum subsp. polymorphum; settings: for MIC: Fusobacterium nucleatum
Excerpt: as §1, §2

S. gordonii ATCC10558 = test: MIC vs. oral germs, broth dilution method; format: cell-based, Streptococcus gordonii; settings: for MIC: Streptococcus gordonii, read-out: MHK (MIC) S. gordonii ATCC10558
Excerpt: as §1, §2

S. mutans ATCC33402 = test: MIC vs. oral germs, broth dilution method; format: cell-based, Streptococcus mutans; settings: for MIC: Streptococcus mutans, read-out: MHK (MIC) S. mutans ATCC33402
Excerpt: as §1, §2

A. viscosus ATCC43146 = test: MIC vs. oral germs, broth dilution method; format: cell-based, Actinomyces viscosus; settings: for MIC: Actinomyces viscosus
Excerpt: as §1, §2

[9] = test system: Candida albicans ATCC 10231; test: MIC, Agar incorporation test; format: cell-based; settings: Sabouraud 4% glucose agar, 3 days at 28° C.
Description: 0.3 ml of each dilution step is mixed with 15 ml of nutrient medium while the latter is still liquid. After the nutrient medium has solidified, 10 μl of each of the following organism dilutions of the test strains in 0.85% NaCl solution are spotted onto the agar medium. […]

[10] = test system: Staphylococcus aureus ATCC 6538; test: Automatic MIC-Screening, broth dilution method; format: cell-based; settings: micro titer plates, 37° C., 24 hours, tested 120 to 3.75 μg/ml
Description: (§5) Determination of the Minimum Inhibitory Concentration (MIC Value)
(§6) 8 μl of each dilution step is mixed with 192 μl of nutrient medium in micro titer plates. The plates are incubated at 37° C. for 24 hours and then the highest dilution (lowest concentration) of the test substance at which growth is just no longer discernible is determined (corresponds to the MIC).

[11] = test system: Actinomyces viscosus ATCC 43146; test: Automatic MIC-Screening, broth dilution method; format: cell-based; settings: micro titer plates, 37° C., 24 hours, tested 120 to 3.75 μg/ml
Description: as §5, §6

[12] = test system: Corynebacterium sp. (Corynebacterium xerosis ATCC 373 oder C. minutissimum ATCC 23348); test: Automatic MIC-Screening, broth dilution method; format: cell-based; settings: micro titer plates, 37° C., 24 hours, tested 120 to 3.75 μg/ml
Description: as §5, §6

[13] = test system: Salmonella choleraesuis ATCC 9184; test: MIC, Agar incorporation test; format: cell-based; settings: 24 hours at 37° C.
[14] = test system: Aspergillus niger ATCC 6275; test: MIC, Agar incorporation test; format: cell-based
Description: as §3, §4

[15] = test system: C. minutissimum ATCC 23348; test: MIC, Agar incorporation test; format: cell-based; settings: 24 hours at 37° C.
Description: as §3, §4

[16] = test system: Klebsiella pneumoniae ATCC 4352; test: MIC, Agar incorporation test; format: cell-based; settings: 24 hours at 37° C.
Description: as §3, §4

[17] = test system: Proteus vulgaris ATCC 6896; test: MIC, Agar incorporation test; format: cell-based; settings: 24 hours at 37° C.
Description: as §3, §4

[18] = broth dilution, Columbia Bouillon with Hemin and Menadion, 7-10 days at 37° C., anaerobic
[19] = broth dilution, 24 h aerobically with 10% CO2, 37° C.
[20] = broth dilution, 7-10 days at 37° C., anaerobic

Structure (SMILES): CCCCC(CC)COC(=O)C(C#N)=C(O)c1ccc(-c2ccccc2)cc1 (stereo not shown) [(101e), 3-biphenyl-4-yl-2-cyano-3-hydroxy-acrylic acid 2-ethyl-hexylester]
MIC (P. nigrescens ATCC33563; ATCC33563, read-out: MHK (MIC) P. nigrescens ATCC33563): > 15 µg/mL
MIC (P. gingivalis ATCC3277; ATCC3277, read-out: MHK (MIC) P. gingivalis ATCC3277): 15 µg/mL (≈ 39.7 µM)
MIC ([1]; ATCC43718, 24 h): > 15 µg/mL
MIC ([2]; Cutibacterium acnes, ATCC6919, 24 hours at 37° C.): 0.94 µg/mL (≈ 2.49 µM)
MIC ([3]; Staphylococcus aureus, ATCC6538, 24 hours at 37° C.): 1.9 µg/mL (≈ 5.03 µM)
MIC ([4]; Corynebacterium xerosis, ATCC373, 24 hours at 37° C.): 1.9 µg/mL (≈ 5.03 µM)
MIC ([5]; Pseudomonas aeruginosa, ATCC15442, 24 hours at 37° C.): > 500 µg/mL
MIC ([6]; Staphylococcus epidermidis, ATCC12228, 24 hours at 37° C.): 1.9 µg/mL (≈ 5.03 µM)
MIC [7]: > 500 µg/mL
MIC ([8]; ATCC10953, read-out: MHK (MIC) F. nucleatum subsp. polymorphum ATCC10953): > 15 µg/mL
MIC (S. gordonii ATCC10558; ATCC10558, 24 h): < 0.94 µg/mL
MIC (S. mutans ATCC33402; ATCC33402, 24 h): < 0.94 µg/mL
MIC (A. viscosus ATCC43146; ATCC43146, read-out: MHK (MIC) A. viscosus ATCC43146): < 0.94 µg/mL
MIC ([9]; Candida albicans, ATCC10231, 72 h): > 500 µg/mL

MIC (P. nigrescens ATCC33563; ATCC33563, broth dilution, Columbia Bouillon with Hemin and Menadion, 7-10 days at 37° C., anaerobic, read-out: MHK (MIC) P. nigrescens ATCC33563): > 15 µg/mL
MIC (P. gingivalis ATCC3277; ATCC3277, broth dilution, Columbia Bouillon with Hemin and Menadion, 7-10 days at 37° C., anaerobic, read-out: MHK (MIC) P. gingivalis ATCC3277): > 15 µg/mL
MIK (MIC) S. aureus [10]: <3.75 μγ/ml
MIK (MIC) A. viscosus [11]: <3.75 μγ/ml
MIK (MIC) Corynebacterium sp. [12]: >120 μγ/ml
MIC ([1]; ATCC43718, broth dilution, 24 h aerobically with 10% CO2, 37° C.): > 15 µg/mL
MIC ([8]; ATCC10953, broth dilution, 7-10 days at 37° C., anaerobic, read-out: MHK (MIC) F. nucleatum subsp. polymorphum ATCC10953): ≥ 15 µg/mL
MIC (S. gordonii ATCC10558; ATCC10558, broth dilution, 24 h aerobically with 10% CO2, 37° C.): 15 µg/mL (≈ 25 µM)
MIC (S. mutans ATCC33402; ATCC33402, broth dilution, 24 h aerobically with 10% CO2, 37° C.): > 15 µg/mL
MIC (A. viscosus ATCC43146; ATCC43146, broth dilution, 7-10 days at 37° C., anaerobic, read-out: MHK (MIC) A. viscosus ATCC43146): 7.5 µg/mL (≈ 12.5 µM)
Structure (SMILES): CCCCCCCCOC(=O)/C(C#N)=C(\O)c1ccc(-c2ccc(/C(O)=C(\C#N)C(=O)OCCCCCCCC)cc2)cc1 [(102a)]

Structure (SMILES): CCCCC(CC)COC(=O)C(C#N)=C(O)c1ccc(-c2ccc(C(O)=C(C#N)C(=O)OCC(CC)CCCC)cc2)cc1 (stereo not shown) [(102b)]
MHK (MIC) P. nigrescens ATCC33563 (P. nigrescens ATCC33563; [18]): >15 ppm
MIC Salmonella choleraesuis ATCC 9184 [13]: >400 ppm
MHK (MIC) P. gingivalis ATCC3277 (P. gingivalis ATCC3277; [18]): >15 ppm
MHK (MIC) A. actinomycetemcomitans ATCC43718 [1, 19]: >15 ppm
MIC Aspergillus niger ATCC 6275 [14]: >400 ppm
MIC Propionibacterium acnes ATCC 6919 ([2]; 24 hours at 37° C.): <1.56 ppm
MIC Staphylococcus aureus ATCC 6538 ([3]; 24 hours at 37° C.): 100 ppm
MIC Corynebacterium xerosis ATCC 373 ([4]; 24 hours at 37° C.): <1.56 ppm
MIC C. minutissimum ATCC 23348 [15]: 50 ppm
MIC Pseudomonas aeruginosa ATCC 15442 ([5]; 24 hours at 37° C.): >400 ppm
MIC Staphylococcus epidermidis ATCC 12228 ([6]; 24 hours at 37° C.): 25 ppm
MIC Escherischia coli ATCC 10536 [7]: >400 ppm
MIC Klebsiella pneumoniae ATCC 4352 [16]: >400 ppm
MIC Proteus vulgaris ATCC 6896 [17]: >400 ppm
MHK (MIC) F. nucleatum subsp. polymorphum ATCC10953 [8, 20]: >15 ppm
MHK (MIC) S. gordonii ATCC10558 (S. gordonii ATCC10558; [19]): 15 ppm
MHK (MIC) S. mutans ATCC33402 (S. mutans ATCC33402; [19]): >15 ppm
MHK (MIC) A. viscosus ATCC43146 (A. viscosus ATCC43146; [20]): 7.5 ppm
MIC Candida albicans ATCC 10231 [9]: >400 ppm

Reference: US7476753B2, “3-aryl-2-cyano-3-hydroxy-acrylic acid derivatives” (Ciba Specialty Chemicals Corporation, priority 2003, dated 2009)
